Measurements taken from PMC3711802 (IUBMB life, 2012).
Read-outs that look alike come from different tables or passages of the source.

Assays:
[1] = test system: EGFR; conditions: ref [8] Li et al., cited from earlier work
[2] = test system: EGFR; conditions: cited from earlier work
[3] = target: EGFR (Homo sapiens, UniProt P00533); experiment: Displacement of bound [^125I]-EGF in A431 cells; type: binding
[4] = test system: A431 subcutaneous xenografts; experiment: Treatment of subcutaneous A431 xenografts in nude mice; type: in vivo, human; conditions: EGFR over-expressing cancers
[5] = test system: EGFR expressing cells; conditions: in vitro and in vivo, cited from earlier work

Which “affinity to the EGFR (in words)” value ([1]; as a free ligand) does the source give for YHWYGYTPQNVI [GE11] here?
The value was “high affinity”.

What about the “affinity to the EGFR” value ([1]; free ligand) of the same substance?
The value was ~ 22 nM.

What about the EGFR activation ([2]; as previously shown by us, ref [9],[10]) of the same substance?
Its EGFR activation is “does not activate the receptor”.

And the EGFR activation ([2]; ref [8])?
Its EGFR activation is “does not activate the EGFR”.

What about the EGFR activation ([2]; ref [9],[10]) of the same substance?
The EGFR activation was “without EGFR activation”.

With “Polyethyleneimine-polyetheleneglycol-GE11 [PPGE11]” as the substance, how does the “EGFR-binding affinity/inhibitory potency compared to GE11” value ([3]; vs free GE11) read?
Its value is “much more potent EGFR binder as compared to GE11”.

What about the “in vitro and in vivo efficacy of both vectors in PolyIC treatment” value [4] of the same substance?
The value was “in vitro and in vivo efficacies of both vectors are comparable”.

What about the “gene delivery into EGFR expressing cells” value ([5]; ref [9],[10],[16]) of the same substance?
The value was “effective and specific gene delivery into EGFR expressing cells”.

And the “targeting of EGFR over-expressing tumors” value ([5]; ref [9],[10])?
Its value is “enabled the targeting of EGFR over-expressing tumors in vitro and in vivo”.

With “Polyethyleneimine-polyetheleneglycol-EGF [PP-EGF]” as the substance, how does the “enhancement of potency by complexation with PolyIC” value ([3]; [^125I]-EGF displacement, PolyIC complex vs uncomplexed conjugate) read?
The value was “approximately 10 fold”.

And the “in vitro and in vivo efficacy of both vectors in PolyIC treatment” value [4]?
The value was “in vitro and in vivo efficacies of both vectors are comparable”.

Which “EGFR activation upon binding” value ([2]; ref [20]) does the source give for “EGF: Recombinant human EGF (hEGF, Peprotech Asia)” here?
Its value is “activates the kinase moiety of the receptor”.
